Results as given in patent publication US10358453B2, “Antiviral compounds” (priority 2015, dated 2019).
Like-named read-outs stand apart in the source and are kept apart here.

Key:
[1] = system: Respiratory Syncytial Virus (RSV) long strain; test: RSV antiviral assay (CPE reduction, CCK-8 readout); type: cell-based; settings: human respiratory syncytial virus
Method: CPE reduction assays are performed as described by Sidwell and Huffman et al., Appl. Microbiol. […] Compounds are added into 384-well cell plates by Labcyte POD 810 Plate Assembler system. Each of the test compounds is provided to duplicate wells of a 384-well cell plate at final concentrations starting from 100 μM or 1 μM using 1/3 stepwise dilutions for 9 points. Quick-thaw Respiratory Syncytial Virus (RSV) long strain (ATCC#VR-26) stock in a 37° C. water bath. Place on ice until ready to use. Viruses are diluted to the concentration of 100 TCID50/30 μL with medium and 30 μl diluted RSV are added into related wells of 384-well cell plates. For each plate, sixteen wells are set aside as uninfected, untreated cell controls (CC), and nine wells per test plate receive virus only as a control for virus replication (VC). The final DMSO concentration of all wells is 1%. Place the plates at 37° C., 5% CO2 for 5 days.
After 5 days incubation, observe the CPE of cells in all wells. […] Six μl of cell counting kit-8 reagent (CCK-8, Dojindo Molecular Technologies Inc., CK04-20) are added to each well, which allows colorimetric assays to determine the number of viable cells through the dehydrogenase activity detection. After 3-4 hour incubation, the absorbance of each well is measured with a spectrophotometric plate reader at 450 nm wavelength, using a 630 nm filter as background according to manufacturer's instruction.

recombinant RSV complex = recombinant RSV complex (Human respiratory syncytial virus A, UniProt P28887); test: RSV polymerase inhibition assay; type: biochemical; settings: 10 nM recombinant RSV complex, 2 h at 30° C.; Table E = <1 μM, Table F = <50 μM; read-out: IC50
recombinant RSV complex, sequence (P28887 whole entry): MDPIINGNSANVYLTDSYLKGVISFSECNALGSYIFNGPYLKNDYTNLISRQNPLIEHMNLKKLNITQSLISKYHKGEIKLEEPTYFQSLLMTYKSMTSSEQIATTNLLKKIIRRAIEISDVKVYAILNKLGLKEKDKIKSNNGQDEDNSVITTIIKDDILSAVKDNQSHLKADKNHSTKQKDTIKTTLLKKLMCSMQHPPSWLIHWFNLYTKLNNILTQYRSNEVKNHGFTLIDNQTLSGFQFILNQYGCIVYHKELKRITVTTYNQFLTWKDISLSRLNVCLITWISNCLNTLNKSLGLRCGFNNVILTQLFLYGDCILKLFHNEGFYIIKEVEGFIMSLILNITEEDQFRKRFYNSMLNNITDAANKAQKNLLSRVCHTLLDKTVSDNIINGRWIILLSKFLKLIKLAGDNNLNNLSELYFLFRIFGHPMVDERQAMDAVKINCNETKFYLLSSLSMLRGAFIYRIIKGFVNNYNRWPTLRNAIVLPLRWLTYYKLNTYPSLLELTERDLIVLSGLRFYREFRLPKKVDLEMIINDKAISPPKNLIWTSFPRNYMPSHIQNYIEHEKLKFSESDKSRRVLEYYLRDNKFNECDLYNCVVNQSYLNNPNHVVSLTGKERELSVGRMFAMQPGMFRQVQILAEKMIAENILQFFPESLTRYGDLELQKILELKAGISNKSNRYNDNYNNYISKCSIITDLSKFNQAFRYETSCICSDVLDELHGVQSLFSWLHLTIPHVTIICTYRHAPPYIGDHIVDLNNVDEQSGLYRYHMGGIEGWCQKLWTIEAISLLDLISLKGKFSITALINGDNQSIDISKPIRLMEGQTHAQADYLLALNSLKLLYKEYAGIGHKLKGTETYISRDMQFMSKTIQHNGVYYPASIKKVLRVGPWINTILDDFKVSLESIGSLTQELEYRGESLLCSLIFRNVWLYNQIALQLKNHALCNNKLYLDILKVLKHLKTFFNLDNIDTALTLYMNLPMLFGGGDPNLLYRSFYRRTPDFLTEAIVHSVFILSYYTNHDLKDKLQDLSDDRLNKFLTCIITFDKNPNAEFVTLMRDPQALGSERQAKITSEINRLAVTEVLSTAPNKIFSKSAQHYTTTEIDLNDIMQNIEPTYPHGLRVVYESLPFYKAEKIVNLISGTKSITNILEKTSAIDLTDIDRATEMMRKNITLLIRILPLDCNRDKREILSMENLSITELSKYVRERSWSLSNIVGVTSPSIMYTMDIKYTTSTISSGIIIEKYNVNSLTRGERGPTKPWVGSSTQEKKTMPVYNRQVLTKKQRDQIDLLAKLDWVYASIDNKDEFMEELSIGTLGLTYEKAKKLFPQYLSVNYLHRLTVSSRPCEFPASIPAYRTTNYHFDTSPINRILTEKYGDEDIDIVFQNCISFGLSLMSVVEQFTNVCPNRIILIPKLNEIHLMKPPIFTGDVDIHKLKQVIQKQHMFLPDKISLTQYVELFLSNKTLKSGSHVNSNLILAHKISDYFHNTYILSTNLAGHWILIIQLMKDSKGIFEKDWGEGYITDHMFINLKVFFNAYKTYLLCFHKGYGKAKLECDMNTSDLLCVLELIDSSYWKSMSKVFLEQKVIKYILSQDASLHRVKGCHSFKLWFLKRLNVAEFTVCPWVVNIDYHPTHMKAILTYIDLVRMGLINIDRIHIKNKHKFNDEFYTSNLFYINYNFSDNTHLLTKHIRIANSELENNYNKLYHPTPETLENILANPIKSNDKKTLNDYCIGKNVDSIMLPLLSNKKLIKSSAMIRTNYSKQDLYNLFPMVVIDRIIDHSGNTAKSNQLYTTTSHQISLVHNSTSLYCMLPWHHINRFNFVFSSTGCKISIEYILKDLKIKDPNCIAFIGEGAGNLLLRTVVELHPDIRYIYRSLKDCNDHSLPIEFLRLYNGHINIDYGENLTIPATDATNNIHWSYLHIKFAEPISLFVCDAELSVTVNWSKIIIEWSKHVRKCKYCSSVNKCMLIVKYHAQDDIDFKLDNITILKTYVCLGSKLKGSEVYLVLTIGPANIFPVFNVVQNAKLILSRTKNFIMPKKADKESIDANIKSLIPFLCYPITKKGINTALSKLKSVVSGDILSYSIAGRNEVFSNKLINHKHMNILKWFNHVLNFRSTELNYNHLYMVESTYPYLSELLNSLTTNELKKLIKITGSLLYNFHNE
recombinant RSV complex, sequence (P03421 whole entry, further chain): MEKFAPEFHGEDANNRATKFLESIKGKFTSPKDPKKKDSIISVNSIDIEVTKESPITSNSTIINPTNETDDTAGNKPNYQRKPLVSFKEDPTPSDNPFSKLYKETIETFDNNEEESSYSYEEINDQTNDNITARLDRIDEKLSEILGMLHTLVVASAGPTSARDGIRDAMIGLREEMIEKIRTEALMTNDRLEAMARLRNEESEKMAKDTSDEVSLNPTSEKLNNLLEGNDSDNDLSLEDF
Outline: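 Inhibitor titrations run for 2 h at 30° C against 10 nM recombinant RSV complex, using RNA oligonucleotide template and radiolabelled nucleotides in pH7.5 Tris-HCl, 6 mM MgCl2. After EDTA quench, scintillation counting of labelled RNA; sigmoidal fit gave the 50% rate-reduction concentration.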

[2] = system: RSV subgenomic replicon 395 HeLa and APC126; test: RSV subgenomic replicon assay (Renilla luciferase); type: cell-based; settings: human respiratory syncytial virus; RSV replicon cells (395 HeLa 7 days or APC126 3 days); Table G = less than 1 μM, Table H = equal to or higher than 1 μM and less than 50 μM
Outline: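 Replicon cells (RSV with SH, G, F replaced by blasticidin resistance; 395 HeLa or BHK-derived APC126) exposed to 9-point 1:3 compound dilutions in 1% DMSO for 7 days (395 HeLa) or 3 days (APC126) at 37 °C. Renilla luciferase luminescence read; EC50 is concentration cutting signal 50% versus untreated cells.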

[3] = Cytotoxicity determination (CCK-8, without addition of virus); type: cell-based; settings: human, HEp-2 cells (uninfected), no virus, Table C = greater than 100 μM, Table D = equal to or less than 100 μM and greater than 10 μM
Outline: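 HEp-2 cells, no virus, exposed to compound from 100 μM in ½ serial dilutions (7 points, duplicate, 1% DMSO) for 5 days at 37° C, 5% CO2. Viability by CCK-8 (3-4 h) optical density; CC50 calculated.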

[4] = 120 h, HEp-2 cells, RSV long strain, 5 days, Table A = less than 1 μM, Table B = equal to or higher than 1 μM and less than 50 μM, read-out: EC50

SMILES	EC50 [1, 4] [µM]	IC50 (recombinant RSV complex) [µM]	EC50 [2] [µM]	CC50 at 5 days [3] [µM]	EC50 ([1]; HEp-2, 120 h) [µM]
CC1(N)COc2c1cc(C(O)(CNC(=O)c1ccc(OC3CC3)c(OCCO)c1)C(F)(F)F)nc2-c1ccc(F)cc1 (centres unmarked) [Compound 12]	< 1	< 1	< 1		
COc1cc(C(=O)NCC(O)(c2cc3c(c(-c4ccc(F)cc4)n2)OCC3(C)N)C(F)(F)F)cc2c1NC(=O)C2=O (centres unmarked) [Compound 10]	1 to 50	< 50	1 to 50	10 to 100	
COc1ccc(C(=O)NCC(O)(c2cc3c(c(-c4ccc(F)cc4)n2)OCC3(C)N)C(F)(F)F)nc1OC (centres unmarked) [Compound 112]		< 1	< 1	10 to 100	
COc1cc(C(=O)NC[C@@](O)(c2cc3c(c(-c4ccc(F)cc4)n2)NC[C@@]3(C)N)C(F)(F)F)cc2cc[nH]c12 [Compound 83]		< 1	< 1	10 to 100	
COc1cc(C(=O)NCC(O)(c2cc3c(c(-c4ccc(F)cc4)n2)OCCC3(C)N)C(F)(F)F)ccc1OC[C@@H](C)O (some centres unmarked) [Compound 103]		< 1	< 1	10 to 100	
COc1cc(C(=O)NC[C@@](O)(c2cc3c(c(-c4ccc(F)cc4)n2)OC[C@@]3(C)NC2COC2)C(F)(F)F)ccc1OC[C@@H](C)O [Compound 131]		< 1	< 1	10 to 100	
COc1cc(C(=O)NC[C@@](O)(c2cc3c(c(-c4ccc(F)cc4)n2)NC[C@@]3(C)N)C(F)(F)F)ccc1OC[C@@H](C)O [Compound 69]		< 1	< 1	10 to 100	
COc1cc(C(=O)NCC(O)(c2cc(C(C)CCN)cc(-c3ccc(F)cc3)n2)C(F)(F)F)ccc1OCCO (centres unmarked) [Compound 13]		< 1	< 1	10 to 100	
COc1cc(C(=O)NCC(O)(c2cc3c(c(-c4ccc(F)cc4)n2)OCC32CCN2)C(F)(F)F)ccc1OC[C@@H](C)O (some centres unmarked) [Compound 108]		< 1	1 to 50	10 to 100	
CC(C)(N)c1cc(-c2ccc(F)cc2)nc([C@@](O)(CNC(=O)c2ccc(OC3CC3)c(OCCO)c2)C(F)(F)F)c1 [Compound 59]		< 1	< 1	10 to 100	
COc1cc(OCCO)cc(C(=O)NC[C@@](O)(c2cc3c(c(-c4ccc(F)cc4)n2)OC[C@@]3(C)N)C(F)(F)F)c1 [Compound 68]		< 1	< 1	10 to 100	
COc1cc(C(=O)NCC(O)(c2cc3c(c(-c4ccc(F)cc4)n2)OCC3(N)CO)C(F)(F)F)cc2cccnc12 (single isomer, unassigned) [Compound 2]	< 1	< 1	< 1		
COc1cc(C(=O)NC[C@@](O)(c2cc3c(c(-c4ccc(F)cc4)n2)OC[C@]3(N)C2CC2)C(F)(F)F)ccc1OC[C@@H](C)O (single isomer, unassigned) [Compound 106]		< 1	< 1	10 to 100	
C[C@@H](O)COc1ccc(C(=O)NC[C@@](O)(c2cc3c(c(-c4ccc(F)cc4)n2)OC[C@@]3(C)N)C(F)(F)F)cc1Cl [Compound 113]		< 1	< 1	10 to 100	
C[C@@]1(N)COc2c1cc([C@](O)(CNC(=O)c1cc3c(c(OC(F)F)c1)NC(=O)C3)C(F)(F)F)nc2-c1ccc(F)cc1 [Compound 98]		< 1	< 1	10 to 100	
COc1cc(C(=O)NC[C@@](O)(c2cc3c(c(-c4ccc(F)cc4)n2)OC[C@@]3(C)NC(C)=O)C(F)(F)F)ccc1OC[C@@H](C)O [Compound 85]		< 1	< 1	10 to 100	
COc1cc(C(=O)NCC(O)(c2cc3c(c(-c4ccc(F)cc4)n2)OCC3(N)CO)C(F)(F)F)cc2cccnc12 (centres unmarked) [Compound 1]		< 1	< 1	10 to 100	< 1
Cn1nc(C(F)(F)F)cc1C(=O)NCC(O)(c1cc2c(c(-c3ccc(F)cc3)n1)OCC2(C)N)C(F)(F)F (centres unmarked) [Compound 114]		< 1	< 1	10 to 100	
C[C@@]1(N)CNc2c1cc([C@](O)(CNC(=O)c1cc(OCCO)c3ncccc3c1)C(F)(F)F)nc2-c1ccc(F)cc1 [Compound 81]		< 1	< 1	10 to 100	
C[C@@]1(N)CNc2c1cc([C@](O)(CNC(=O)c1ccc(OCCO)c(OC3CC3)c1)C(F)(F)F)nc2-c1ccc(F)cc1 [Compound 61]		< 1	< 1	10 to 100	
CC(C)(N)c1cc(-c2ccc(F)cc2)nc([C@@](O)(CNC(=O)c2ccc(OCCO)c(OC3CC3)c2)C(F)(F)F)c1 [Compound 57]		< 1	< 1	10 to 100	
COc1ccc(C(=O)NCC(O)(c2cc3c(c(-c4ccc(F)cc4)n2)OCC3(C)N)C(F)(F)F)cc1OC1CC1 (centres unmarked) [Compound 23]		< 1	< 1	10 to 100	
COc1cc(C(=O)NC[C@@](O)(c2cc3c(c(-c4ccc(F)cc4)n2)OC[C@@]3(C)NO)C(F)(F)F)ccc1OC[C@@H](C)O [Compound 123]		< 1	< 1	10 to 100	
COc1cc(C(=O)NCC(O)(c2cc(C3CCNCC3)cc(-c3ccc(F)cc3)n2)C(F)(F)F)ccc1OCCO (centres unmarked) [Compound 18]		< 1	< 1	10 to 100	
